Experimental data from patent publication EP4644383A1 (Jiangsu Yahong Meditech Co., Ltd., priority 2022, dated 2024).
Read-outs that look alike come from different tables or passages of the source.

Columns and labels:
Assay type in all cases: biochemical
FGFR4 = molecular target: T1, FGFR4 (Homo sapiens, UniProt P22455); test: FGFR4 kinase activity inhibition assay (LanthaScreen TR-FRET)
T1 construct: FGFR4's cytoplasmic domain [460-802 (terminal) amino acids]; purchased Carna 08-136
Protocol: (§1) FGFR1 kinase activity was measured using Invitrogen LanthaScreen™ assay technology, which utilized fluorescently-labeled peptides and terbium-labeled antibodies to directly measure an amount of the phosphorylated substrate through time-resolved fluorescence energy transfer (TR-FRET). • ① The test compounds were diluted: starting from a concentration of 1 µM, with a buffer solution in a three-fold serial dilution, the buffer solution being composed of 50 mM HEPES, 10 mM MgCl2, 0.01% TritonX-100, 0.01% BSA, 4 mM DTT (pH 7.5), and 1% DMSO; • ② 0.01 nM recombinant human GST fusion protein FGFR1's cytoplasmic domain [398-822 (terminal) amino acids] (Carna: 08-133) was formulated into a 2 × solution, mixed well with the test compounds, and incubated at 23°C for 10 minutes; • ③ 28 nM Fluorescein-Poly GT peptide substrate (Life Technologies: PV3611) and 28 µM ATP were formulated into a 2 × solution, mixed well with the test compounds and enzyme in ②, and incubated at 23°C for 30 minutes; • ④ 10 µL of 2nM Tb-PY20 antibody (Life Technologies: PV3552) and 10 mM EDTA were added to quench the kinase reaction, and incubated at 22°C for 60 minutes. • ⑤ The reaction was measured using a PerkinElmer EnVision multimode plate reader through TR-FRET dual wavelength detection. • 1. The RFU values were copied from the Envision program. • 2. The ratio of RFU 520nm/RFU 495nm was calculated. • 3. The value of the ratio was converted to a percentage inhibition value. % Inhibition = (max-data)/(max-min) × 100 [formula]
(§2) "Min" represents the ratio of the control without enzyme, "max" represents the ratio of the DMSO control, and "data" represents the ratio of the compounds in wells with different concentrations.
(§3) "Top" refers to the maximum response, "Bottom" refers to the minimum response, and "HillSlope" refers to the slope of the curve.
(§4) According to the same method as that in the FGFR1 kinase activity inhibition assay, the inhibitory activities against FGFR2, FGFR3 and FGFR4 were tested using FGFR2's cytoplasmic domain [399-821 (terminal) amino acids] (Carna: 08-134), FGFR3's cytoplasmic domain [436-806 (terminal) amino acids] (Carna: 08-135) and FGFR4's cytoplasmic domain [460-802 (terminal) amino acids] (Carna: 08-136), respectively. Table 1 reports the kinase activity inhibition results and selectivity towards FGFR3 of each compound.

FGFR2 = molecular target: T2, FGFR2 (Homo sapiens, UniProt P21802); test: FGFR2 kinase activity inhibition assay (LanthaScreen TR-FRET)
T2 construct: FGFR2's cytoplasmic domain [399-821 (terminal) amino acids]; purchased Carna 08-134
T2 sequence (P21802 399-821): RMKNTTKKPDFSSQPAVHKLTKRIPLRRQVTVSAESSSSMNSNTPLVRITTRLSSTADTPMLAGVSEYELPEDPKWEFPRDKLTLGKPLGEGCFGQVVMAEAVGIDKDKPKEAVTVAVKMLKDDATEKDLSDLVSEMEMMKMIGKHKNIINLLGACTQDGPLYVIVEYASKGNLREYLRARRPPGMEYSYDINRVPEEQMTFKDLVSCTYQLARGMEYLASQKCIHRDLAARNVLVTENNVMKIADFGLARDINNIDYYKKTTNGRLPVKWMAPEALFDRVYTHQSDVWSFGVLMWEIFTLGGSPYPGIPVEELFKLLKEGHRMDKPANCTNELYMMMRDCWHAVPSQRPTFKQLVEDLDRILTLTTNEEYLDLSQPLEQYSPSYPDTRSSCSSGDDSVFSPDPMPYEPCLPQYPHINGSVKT
Protocol: as §1, §2, §3
as §4, with “Table 1 reports the kinase activity inhibition results and selectivity towards FGFR3 of each compound.” left out

FGFR3 = molecular target: T3, FGFR3 (Homo sapiens, UniProt P22607); test: FGFR3 kinase activity inhibition assay (LanthaScreen TR-FRET); conditions: for Selectivity (X) FGFR1/FGFR3: ratio of IC50 FGFR1/FGFR3, selectivity towards FGFR3; for Selectivity (X) FGFR2/FGFR3: ratio of IC50 FGFR2/FGFR3, selectivity towards FGFR3; for Selectivity (X) FGFR4/FGFR3: ratio of IC50 FGFR4/FGFR3, selectivity towards FGFR3
T3 construct: FGFR3's cytoplasmic domain [436-806 (terminal) amino acids]; purchased Carna 08-135
T3 sequence (P22607 436-806): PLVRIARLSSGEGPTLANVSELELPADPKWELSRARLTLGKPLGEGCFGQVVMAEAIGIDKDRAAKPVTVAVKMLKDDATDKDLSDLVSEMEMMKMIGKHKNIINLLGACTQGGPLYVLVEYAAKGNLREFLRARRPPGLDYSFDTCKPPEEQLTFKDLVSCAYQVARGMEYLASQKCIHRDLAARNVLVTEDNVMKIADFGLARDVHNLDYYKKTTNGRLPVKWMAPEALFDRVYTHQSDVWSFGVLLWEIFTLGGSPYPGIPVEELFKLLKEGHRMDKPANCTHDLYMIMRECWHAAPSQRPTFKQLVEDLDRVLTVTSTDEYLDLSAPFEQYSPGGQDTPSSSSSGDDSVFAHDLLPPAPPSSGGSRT
Summary of the method: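 Read-out is TR-FRET, with the 520 nm/495 nm emission ratio normalised to DMSO (max) and enzyme-free (min) controls. Enzyme was the FGFR3 cytoplasmic domain, residues 436-806. EDTA (10 mM) stopped the reaction, followed by 60 min at 22 °C before reading.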

FGFR1 = molecular target: T4, FGFR1 (Homo sapiens, UniProt P11362); test: FGFR1 kinase activity inhibition assay (LanthaScreen TR-FRET)
T4 construct: cytoplasmic domain [398-822 (terminal) amino acids]; purchased Carna 08-133
T4 sequence (P11362 398-822): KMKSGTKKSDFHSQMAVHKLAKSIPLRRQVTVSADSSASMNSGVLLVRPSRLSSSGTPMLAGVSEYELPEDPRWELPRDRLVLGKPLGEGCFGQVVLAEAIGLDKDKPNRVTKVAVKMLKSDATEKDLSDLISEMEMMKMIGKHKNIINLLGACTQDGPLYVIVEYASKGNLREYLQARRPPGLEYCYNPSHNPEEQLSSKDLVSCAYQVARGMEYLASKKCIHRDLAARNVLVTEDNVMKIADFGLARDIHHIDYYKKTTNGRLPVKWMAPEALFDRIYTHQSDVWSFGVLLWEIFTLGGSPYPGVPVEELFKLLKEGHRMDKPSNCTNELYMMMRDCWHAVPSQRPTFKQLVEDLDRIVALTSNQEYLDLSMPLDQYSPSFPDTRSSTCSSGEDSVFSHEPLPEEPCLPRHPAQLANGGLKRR
Summary of the method: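 Emission ratio 520 nm/495 nm by TR-FRET after stopping reaction with 10 mM EDTA and 60 min incubation at 22°C. Inhibition normalized between no-enzyme (min) and DMSO (max) controls, then fitted to a four-parameter curve (Top, Bottom, HillSlope).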

[1] = FGFR4 kinase, TR-FRET, read-out: IC50 (nM) FGFR4
[2] = FGFR2 kinase, TR-FRET, read-out: IC50 (nM) FGFR2
[3] = FGFR3 kinase, TR-FRET, read-out: IC50 (nM) FGFR3
[4] = FGFR1 kinase, TR-FRET, read-out: IC50 (nM) FGFR1

T1 sequence (P22455 460-802): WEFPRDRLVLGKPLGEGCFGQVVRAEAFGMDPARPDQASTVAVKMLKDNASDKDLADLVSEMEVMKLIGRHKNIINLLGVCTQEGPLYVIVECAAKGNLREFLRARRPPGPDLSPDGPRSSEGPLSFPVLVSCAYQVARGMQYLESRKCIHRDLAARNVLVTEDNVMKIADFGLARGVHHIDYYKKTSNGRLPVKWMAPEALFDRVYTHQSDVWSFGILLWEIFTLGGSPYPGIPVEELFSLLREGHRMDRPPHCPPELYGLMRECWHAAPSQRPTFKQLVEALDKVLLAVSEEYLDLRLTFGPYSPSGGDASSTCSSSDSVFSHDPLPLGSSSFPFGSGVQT

IC50 (FGFR4; [1]) [nM] | IC50 (FGFR2; [2]) [nM] | IC50 (FGFR3; [3]) [nM] | Selectivity (X) FGFR1/FGFR3 (FGFR3) | Selectivity (X) FGFR2/FGFR3 (FGFR3) | Selectivity (X) FGFR4/FGFR3 (FGFR3) | IC50 (FGFR1; [4]) [nM] | Structure (SMILES) | IC50 (FGFR4) [nM] | IC50 (FGFR2) [nM] | IC50 (FGFR3) [nM] | IC50 (FGFR1) [nM]
1 to 10 | < 1 | < 1 | A (A represents 1 ≤ multiple X<20) | A (A represents 1 ≤ multiple X<20) | B (B represents 20 ≤ multiple X<50) | 1 to 10 | C[C@@H](Oc1cc(F)c2[nH]nc(-c3cnn(C)c3)c2c1)c1c(Cl)cncc1Cl [Example 5, (R)-5-(1-(3,5-dichloropyridin-4-yl)ethoxy)-7-fluoro-3-(1-methyl-1H-pyrazol-4-yl)-1H-indazole] | – | – | – | –
> 100 | 10 to 100 | 1 to 10 | B (B represents 20 ≤ multiple X<50) | A (A represents 1 ≤ multiple X<20) | B (B represents 20 ≤ multiple X<50) | > 100 | C[C@@H](Oc1cc(C2CC2)c2[nH]nc(-c3cnn(C)c3)c2c1)c1c(Cl)cncc1Cl [Example 7, (R)-7-cyclopropyl-5-(1-(3,5-dichloropyridin-4-yl)ethoxy)-3-(1-methyl-1H-pyrazol-4-yl)-1H-indazole] | – | – | – | –
10 to 100 | 1 to 10 | 1 to 10 | A (A represents 1 ≤ multiple X<20) | A (A represents 1 ≤ multiple X<20) | A (A represents 1 ≤ multiple X<20) | 10 to 100 | C[C@@H](Oc1cc(F)c2[nH]nc(-c3cnn(CCS(C)(=O)=O)c3)c2c1)c1c(Cl)cncc1Cl [Example 11, (R)-5-(1-(3,5-dichloropyridin-4-yl)ethoxy)-7-fluoro-3-(1-(2-(methylsulfonyl)ethyl)-1H-pyrazol-4-yl)-1H-indazole] | – | – | – | –
10 to 100 | 1 to 10 | 1 to 10 | A (A represents 1 ≤ multiple X<20) | A (A represents 1 ≤ multiple X<20) | A (A represents 1 ≤ multiple X<20) | 10 to 100 | C[C@@H](Oc1cc(F)c2[nH]nc(-c3cnn(CC4CC4)c3)c2c1)c1c(Cl)cncc1Cl [Example 14, (R)-3-(1-(cyclopropylmethyl)-1H-pyrazol-4-yl)-5-(1-(3,5-dichloropyridin-4-yl)ethoxy)-7-fluoro-1H-indazole] | – | – | – | –
> 100 | 1 to 10 | 1 to 10 | A (A represents 1 ≤ multiple X<20) | A (A represents 1 ≤ multiple X<20) | C (C represents 50 ≤ multiple X<100) | 10 to 100 | C[C@@H](Oc1cc(F)c2[nH]nc(-c3cnn(CCN(C)C)c3)c2c1)c1c(Cl)cncc1Cl [Example 15, (R)-2-(4-(5-(1-(3,5-dichloropyridin-4-yl)ethoxy)-7-fluoro-1H-indazol-3-yl)-1H-pyrazol-1-yl)-N,N-dimethylethan-1-amine] | – | – | – | –
> 100 | < 1 | < 1 | A (A represents 1 ≤ multiple X<20) | A (A represents 1 ≤ multiple X<20) | D (D represents 100 ≤ multiple X) | 1 to 10 | C[C@@H](Oc1cc(F)c2[nH]nc(-c3cnn(CCCN(C)C)c3)c2c1)c1c(Cl)cncc1Cl [Example 17, (R)-3-(4-(5-(1-(3,5-dichloropyridin-4-yl)ethoxy)-7-fluoro-1H-indazol-3-yl)-1H-pyrazol-1-yl)-N,N-dimethylpropan-1-amine] | – | – | – | –
> 100 | 1 to 10 | 1 to 10 | B (B represents 20 ≤ multiple X<50) | A (A represents 1 ≤ multiple X<20) | D (D represents 100 ≤ multiple X) | 10 to 100 | C[C@@H](Oc1cc(F)c2[nH]nc(-c3cnn(CCN4CCCCC4)c3)c2c1)c1c(Cl)cncc1Cl [Example 23, (R)-5-(1-(3,5-dichloropyridin-4-yl)ethoxy)-7-fluoro-3-(1-(2-(piperidin-1-yl)ethyl)-1H-pyrazol-4-yl)-1H-indazole] | – | – | – | –
10 to 100 | 1 to 10 | < 1 | A (A represents 1 ≤ multiple X<20) | A (A represents 1 ≤ multiple X<20) | C (C represents 50 ≤ multiple X<100) | 10 to 100 | C[C@@H](Oc1cc(F)c2[nH]nc(-c3cnn(CCN4CCS(=O)(=O)CC4)c3)c2c1)c1c(Cl)cncc1Cl [Example 24, (R)-4-(2-(4-(5-(1-(3,5-dichloropyridin-4-yl)ethoxy)-7-fluoro-1H-indazol-3-yl)-1H-pyrazol-1-yl)ethyl)thiomo rpholine 1,1-dioxide] | – | – | – | –
> 100 | 10 to 100 | 1 to 10 | B (B represents 20 ≤ multiple X<50) | A (A represents 1 ≤ multiple X<20) | C (C represents 50 ≤ multiple X<100) | > 100 | Cc1cc(O[C@H](C)c2c(Cl)cncc2Cl)cc2c(-c3cnn(CCN4CCOCC4)c3)n[nH]c12 [Example 27, (R)-4-(2-(4-(5-(1-(3,5-dichloropyridin-4-yl)ethoxy)-7-methyl-1H-indazol-3-yl)-1H-pyrazol-1-yl)ethyl)morpholine] | – | – | – | –
10 to 100 | < 1 | < 1 | A (A represents 1 ≤ multiple X<20) | A (A represents 1 ≤ multiple X<20) | B (B represents 20 ≤ multiple X<50) | 1 to 10 | C[C@@H](Oc1ccc2[nH]nc(-c3cnn(C4CCN(C(=O)CO)C4)c3)c2n1)c1c(Cl)cncc1Cl (stereo partly drawn) [Example 59, 1-(3-(4-(5-((R)-1-(3,5-dichloropyridin-4-yl)ethoxy)-1H-pyrazolo[4,3-b]pyridin-3-yl)-1H-pyrazol-1-yl)pyrrolidin-1-yl)-2-hydroxyethan-1-one] | – | – | – | –

Structure (SMILES) | IC50 (FGFR4; [1]) [nM] | IC50 (FGFR2; [2]) [nM] | IC50 (FGFR3; [3]) [nM] | Selectivity (X) FGFR1/FGFR3 (FGFR3) | Selectivity (X) FGFR2/FGFR3 (FGFR3) | Selectivity (X) FGFR4/FGFR3 (FGFR3) | IC50 (FGFR1; [4]) [nM] | IC50 (FGFR4) [nM] | IC50 (FGFR2) [nM] | IC50 (FGFR3) [nM] | IC50 (FGFR1) [nM]
C[C@@H](Oc1ccc2[nH]nc(-c3cnn(Cc4cccnc4)c3)c2n1)c1c(Cl)cncc1Cl [Example 28, (R)-5-(1-(3,5-dichloropyridin-4-yl)ethoxy)-3-(1-(pyridin-3-ylmethyl)-1H-pyrazol-4-yl)-1H-pyrazolo[4,3-b]pyridine] | – | – | – | A (A represents 1 ≤ multiple X<20) | A (A represents 1 ≤ multiple X<20) | A (A represents 1 ≤ multiple X<20) | – | 1 to 10 | < 1 | < 1 | 1 to 10
C[C@@H](Oc1ccc2[nH]nc(-c3cnn(CCN4CCOCC4)c3)c2n1)c1c(Cl)cncc1Cl [Example 31, (R)-4-(2-(4-(5-(1-(3,5-dichloropyridin-4-yl)ethoxy)-1H-pyrazolo[4,3-b]pyridin-3-yl)-1H-pyrazol-1-yl)ethyl)morpholine] | – | – | – | B (B represents 20 ≤ multiple X<50) | A (A represents 1 ≤ multiple X<20) | B (B represents 20 ≤ multiple X<50) | – | 10 to 100 | < 1 | < 1 | 1 to 10
